Assay results from ChEMBL document CHEMBL1145588, “Design, synthesis, and structure-activity relationships of piperidine and dehydropiperidine carboxylic acids as novel, potent dual PPARalpha/gamma agonists” (Bioorg Med Chem Lett, 2008).

What was measured:
[1] = target: T1, Peroxisome proliferator-activated receptor gamma (Homo sapiens, UniProt P37231); assay: Agonist activity at human PPARgamma expressed in HEK293 cells assessed as luciferase activity by GAL4 transactivation assay; type: functional, cell-based
T1 sequence (P37231 whole entry): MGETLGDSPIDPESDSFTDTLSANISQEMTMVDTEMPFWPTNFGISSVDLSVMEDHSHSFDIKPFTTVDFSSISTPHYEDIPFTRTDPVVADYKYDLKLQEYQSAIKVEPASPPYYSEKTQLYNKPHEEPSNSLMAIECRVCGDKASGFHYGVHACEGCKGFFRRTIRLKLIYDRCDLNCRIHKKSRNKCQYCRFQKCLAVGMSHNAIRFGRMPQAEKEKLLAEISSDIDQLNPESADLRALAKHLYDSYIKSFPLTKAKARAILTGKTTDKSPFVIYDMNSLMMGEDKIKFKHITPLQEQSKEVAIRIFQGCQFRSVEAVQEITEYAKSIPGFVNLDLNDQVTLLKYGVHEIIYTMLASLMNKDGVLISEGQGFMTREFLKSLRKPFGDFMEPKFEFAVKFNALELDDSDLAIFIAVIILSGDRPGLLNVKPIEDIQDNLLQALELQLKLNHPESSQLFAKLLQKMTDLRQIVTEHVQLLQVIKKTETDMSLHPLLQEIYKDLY

[2] = target: T2, Peroxisome proliferator-activated receptor alpha (Homo sapiens, UniProt Q07869); assay: Agonist activity at human PPARalpha expressed in HEK293 cells assessed as luciferase activity by GAL4 transactivation assay; type: functional, cell-based
T2 sequence (Q07869 whole entry): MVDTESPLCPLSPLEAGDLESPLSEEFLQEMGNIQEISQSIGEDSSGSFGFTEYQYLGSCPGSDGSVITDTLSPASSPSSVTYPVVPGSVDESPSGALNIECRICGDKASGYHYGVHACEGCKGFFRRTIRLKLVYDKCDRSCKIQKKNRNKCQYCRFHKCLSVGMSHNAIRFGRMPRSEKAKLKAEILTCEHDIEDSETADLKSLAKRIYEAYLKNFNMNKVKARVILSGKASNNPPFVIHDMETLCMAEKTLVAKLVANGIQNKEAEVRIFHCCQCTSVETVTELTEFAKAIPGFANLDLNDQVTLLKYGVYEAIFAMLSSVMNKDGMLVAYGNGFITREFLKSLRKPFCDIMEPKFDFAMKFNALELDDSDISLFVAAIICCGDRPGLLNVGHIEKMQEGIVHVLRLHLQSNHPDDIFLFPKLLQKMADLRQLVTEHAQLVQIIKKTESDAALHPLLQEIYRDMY

[3] = target: Peroxisome proliferator-activated receptor gamma (Homo sapiens) (UniProt P37231); assay: Binding affinity at human PPARgamma by fluorescence polarization
[4] = target: Peroxisome proliferator-activated receptor alpha (Homo sapiens) (UniProt Q07869); assay: Binding affinity at human PPARalpha by fluorescence polarization

SMILES | EC50 [1] | EC50 [2] | IC50 [3] | IC50 [4]
Cc1oc(-c2ccccc2)nc1CCOc1cccc(C2CN(C(=O)Oc3ccccc3)CCC2CC(=O)O)c1 (racemic) | 1290 nM | 170 nM | 7690 nM | 8120 nM
CCCOC(=O)N1CCC(C(=O)O)=C(Cc2cccc(OCCc3nc(-c4ccccc4)oc3C)c2)C1 | 180 nM | – | – | –
Cc1oc(-c2ccccc2)nc1CCOc1ccc(CCC2CN(C(=O)OCC(C)C)CCC2C(=O)O)cc1 (racemic) | 263 nM | 44 nM | 450 nM | 711 nM
Cc1oc(-c2ccccc2)nc1CCOc1cccc(CC2=CN(C(=O)OCc3ccccc3)CCC2C(=O)O)c1 (racemic) | 24 nM | 16 nM | 133 nM | 654 nM
Cc1oc(-c2ccccc2)nc1CCOc1cccc(C2=C(CC(=O)O)CCN(C(=O)Oc3ccccc3)C2)c1 | 46 nM | 4 nM | 34 nM | 16 nM
Cc1oc(-c2ccccc2)nc1CCOc1cccc(C2CN(C(=O)OCC(C)C)CCC2C(=O)O)c1 (racemic) | > 7500 nM | 209 nM | > 27300 nM | 7620 nM
Cc1oc(-c2ccccc2)nc1CCOc1cccc(C2=C(CC(=O)O)CCN(C(=O)OCC(C)C)C2)c1 | 18 nM | 6 nM | 49 nM | 130 nM
Cc1oc(-c2ccccc2)nc1CCOc1ccc(CCC2=C(C(=O)O)CCN(C(=O)OCC(C)C)C2)cc1 | 74 nM | 56 nM | 110 nM | 255 nM
COc1ccc(OC(=O)N(CC(=O)O)Cc2ccc(OCCc3nc(-c4ccccc4)oc3C)cc2)cc1 [MURAGLITAZAR] | – | 1410 nM | – | –

More lines, now with the values ahead:

EC50 [1] | EC50 [2] | IC50 [3] | IC50 [4] | SMILES
1070 nM | 18 nM | 6030 nM | 1370 nM | Cc1oc(-c2ccccc2)nc1CCOc1cccc(CC2CN(C(=O)OCC(C)C)CCC2C(=O)O)c1 (racemic)
1120 nM | 28 nM | 3040 nM | 1170 nM | Cc1oc(-c2ccccc2)nc1CCOc1ccc(CC2=C(C(=O)O)CCN(C(=O)OCC(C)C)C2)cc1
4650 nM | 5570 nM | 7400 nM | > 27300 nM | Cc1oc(-c2ccccc2)nc1CCOc1ccc(C2=C(C(=O)O)CCN(C(=O)OCC(C)C)C2)cc1
490 nM | 580 nM | 3090 nM | > 15000 nM | Cc1oc(-c2ccccc2)nc1CCOc1cccc(C2CN(C(=O)OCC(C)C)CCC2CC(=O)O)c1 (racemic)
14 nM | 23 nM | 287 nM | 1080 nM | Cc1oc(-c2ccccc2)nc1CCOc1cccc(CC2=CN(c3nccc(C(F)(F)F)n3)CCC2C(=O)O)c1 (racemic)
257 nM | 5 nM | 1250 nM | 215 nM | Cc1oc(-c2ccccc2)nc1CCOc1ccc(CC2CN(C(=O)OCC(C)C)CCC2C(=O)O)cc1 (racemic)
7 nM | 165 nM | – | – | Cc1oc(-c2ccccc2)nc1CCOc1ccc(C[C@@H]2CN(c3nccc(C(F)(F)F)n3)C[C@@H]2C(=O)O)cc1
> 3500 nM | 4920 nM | 4730 nM | > 15000 nM | Cc1oc(-c2ccccc2)nc1CCOc1cccc(CC2=C(C(=O)O)CCN(C(=O)OCc3ccccc3)C2)c1
644 nM | 89 nM | 1380 nM | 1330 nM | Cc1oc(-c2ccccc2)nc1CCOc1cccc(CC2=C(C(=O)O)CCN(c3nccc(C(F)(F)F)n3)C2)c1
> 7500 nM | > 7500 nM | > 27500 nM | > 27500 nM | Cc1oc(-c2ccccc2)nc1CCOc1cccc(C2=C(C(=O)O)CCN(Cc3ccccc3)C2)c1
